Test results from article PMC9346113, “Therapeutic impact of BET inhibitor BI 894999 treatment: backtranslation from the clinic” (British Journal of Cancer, 2022).
Where two headings read alike, the source gives them in different places.

What was measured:
Ty-82 BRD4-NUT = assay: Cell proliferation assay (Alamar readout), Ty-82; format: cell-based, human; conditions: read-out: geomean GI50
Procedure: (§1) The NUT Carcinoma cell line Ty-82 was purchased from JCRB Japan No. 1330 and cultivated in RPMI 1640 supplemented with 10% fetal calf serum (FCS). The NC cell lines 10–15, 14169 and 10326 were in-licensed from Christopher French, Brigham & Womens Hospital, Boston, and were cultivated in DMEM supplemented with glutamax and 10% FCS.
(§2) Viability assays were performed on 96-well flat-bottom microtiter plates and incubated with Alamar Blue solution (Invitrogen, Carlsbad, US-CA). The effects of drug combinations were analysed using the Bliss Independence Model.
(§3) Dose response curves (96h cell proliferation assay - Alamar readout) on four NC cell lines with BET inhibitor BI 894999. Yellow bar: readout t zero (before adding of compound). Green bar: DMSO control (max proliferation).
(§4) Dose response curves (96h cell proliferation assay - Alamar readout) on four NC cell lines with multiple BET inhibitors.

10–15 BRD4-NUT = assay: Cell proliferation assay (Alamar readout), 10–15; format: cell-based, human; conditions: 96h, read-out: geomean GI50
Procedure: as §1, §2, §3, §4

14169 BRD4-NUT = assay: Cell proliferation assay (Alamar readout), 14169; format: cell-based, human; conditions: 96h, read-out: geomean GI50
Procedure: as §1, §2, §3, §4

10326 BRD3-NUT = assay: Cell proliferation assay (Alamar readout), 10326; format: cell-based, human; conditions: 96h, read-out: geomean GI50
Procedure: as §1, §2, §3, §4

BRD4-NUT = system: T1, BRD4-NUT; assay: Immunofluorescence staining of NUT megadomains, Ty-82; format: cell-based, human; conditions: Ty-82; 30 min treatment
T1 construct: endogenous in cells; host or cells: Ty-82 NUT carcinoma cells
Procedure: Cells were seeded on four-well chamber slides (Merck Millipore, #PEZGS0416). After treatment, cells were fixed with 4% PFA (16% Solution, Thermo Fischer #28908 Paraformaldehyde, diluted 1:4 in PBS), permeabilised with 0,1% TX-100 (Sigma #93443, diluted in PBS). After blocking in blocking buffer (10% normal goat serum, Sigma #G9023–10ml, diluted in blocking solution: 2% BSA/PBS, Sigma #A7284–50ml, diluted 1:15 in PBS), the first antibody mAB rabbit anti-NUT 1:1000 (clone C52B1, Cell Signaling #3625) in blocking buffer was added, followed by incubation with the 2nd antibody goat anti-rabbit Alexa*488 1:1000 (Thermo Fisher, #A-11008) in blocking buffer in the dark. Cells were mounted with ProLong Gold Antifade Mountant with DAPI (Thermo Fisher, #P36931) and analysed using a Laser scanning microscope (LSM700). […]
Immunofluorescence staining of NUT megadomains on NC Ty-82 treated with BI with BI 894999 30nM for 1 h, then changed to 10 nM or 5 nM or 2.5 nM or control for 24 h.

Ty-82 = assay: Combination viability assay, Bliss analysis (CGI), Ty-82; format: cell-based, human; conditions: partner in combination with BI 894999 (10–20 nM)
Procedure: as §2

[1] = system: Ty-82 xenograft (BRD4-NUT); assay: Ty-82 NC xenograft model; format: in vivo, mice
Description: (§5) Mice were group-housed (8–10 mice per cage) under pathogen-free and controlled environmental conditions (21 ± 1.5 C temperature, 55 ± 10% humidity) in an AAALAC accredited facility and handled according to the institutional, governmental and European Union guidelines (Austrian Animal Protection Laws, GV-SOLAS and FELASA guidelines). Animal studies were approved by the internal ethics committee and the local government committee. Mice were 6- to 8-week-old female CIEA NOG purchased from Taconic, Denmark (NOD.Cg-Prkdc^scid Il2rg^tm1Sug/JicTac). 5 × 10^6 NC tumour cells were injected subcutaneously into the right flank of the mice (1 site per mouse). Mice were randomly distributed between the treatment and the vehicle control when tumours were well established and had reached volumes of 100–150 mm^3. Compounds were suspended in 0.5% Natrosol and administered once daily intra-gastral by gavage needle. Tumour diameters were measured three times a week with a calliper. […] Within each subtopic the p-values of the efficacy parameters were adjusted for multiple comparisons according to Bonferroni–Holm. The p-values of the tolerability parameter remained unadjusted in order not to overlook a possible adverse effect. The level of significance was fixed at α = 5%. An adjusted p-value of less than 0.05 was considered to show a statistically significant difference between the groups. The statistical evaluation was prepared using the software Graph Pad Prism.

[2] = system: 10–15 xenograft (BRD4-NUT); assay: 10–15 NC xenograft model; format: in vivo, mice
Description: as §5

[3] = system: 10326 xenograft (BRD3-NUT); assay: 10326 NC xenograft model; format: in vivo
Description: as §5

[4] = PK analysis in mouse plasma; format: in vivo; conditions: CIEA NOG (NOD.Cg-Prkdc^scid Il2rg^tm1Sug/JicTac), oral, mice, 5 mg/kg CCS1477, exposure defined as sufficient for a synergistic effect, read-out: plasma concentration at 6 h after compound application
Description: PK analysis in mouse plasma. Oral treatment at the indicated doses. Sampling at the indicated timepoints.

BRD3-NUT = system: T2, BRD3-NUT; assay: IHC of 10326 xenograft tumours, NUT protein; format: in vivo, mice; conditions: day 21, CCS1477 at either dose (5 or 10 mg/kg)
T2 construct: endogenous in cells; host or cells: 10326 NUT carcinoma cells, in culture (A11) and as subcutaneous xenograft tumours in NOG mice (A26)
Procedure: Immunohistochemistry was performed on formalin-fixed, paraffin-embedded tumour tissue using antibodies against human Ki67(Cell Signaling #9027, 1:400 dilution), anti-human mitochondria (Abcam ab92824, 1:1000 dilution) and against endogenous NUT protein (Cell Signaling #3625, 1:50 dilution) used to detect NUT fusion proteins. Digital images of whole tissue sections were acquired using a Leica SCN400 histology scanner (Leica Microsystems). Ki67-positive index was evaluated using Halo Software V. 3.2 (Indica lab). Regions of interest (ROIs) within the tissue sections were first identified using Halo Software via machine learning technology across pathological samples and tissue control, within these ROIs, nuclei were detected and classified as positive or negative based on IHC staining thresholds.
BRD3-NUT 10326 tumor sections after treatment with 2 mg/kg BI 894999, 5 mg/kg or 10 mg/kg CCS1477 and the combination of both. IHC staining for NUT protein.

10–15 xenografts = system: 10–15 xenografts; design: method as in PMID 32371576; conditions: mice bearing 10–15 xenografts; tumour regression not described; cited from earlier work
[5] = mice; 1 mg/kg romidepsin; BI 894999 at clinically relevant doses; data not shown

Cc1sc2c(c1C)C(c1ccc(Cl)cc1)=N[C@@H](CC(=O)OC(C)(C)C)c1nnc(C)n1-2 [JQ1]
GI50 (Ty-82 BRD4-NUT; 96h): 110 nM | GI50 (10–15 BRD4-NUT): 84.4 nM | GI50 (14169 BRD4-NUT): 49.2 nM | GI50 (10326 BRD3-NUT): 43.2 nM

CCNC(=O)C[C@@H]1N=C(c2ccc(Cl)cc2)c2cc(OC)ccc2-n2c(C)nnc21 [GSK525762]
GI50 (Ty-82 BRD4-NUT; Homo sapiens, TY82, 96h): 154 nM | GI50 (10–15 BRD4-NUT; Homo sapiens): 113 nM | GI50 (14169 BRD4-NUT; Homo sapiens): 55 nM | GI50 (10326 BRD3-NUT; Homo sapiens): 43.6 nM

CO[C@H]1CC[C@H](n2c([C@@H]3CCCC(=O)N3c3ccc(F)c(F)c3)nc3cc(-c4c(C)noc4C)ccc32)CC1 [CCS1477]
GI50 (Ty-82 BRD4-NUT; Homo sapiens, TY82, 96h): 38.5 nM | GI50 (10–15 BRD4-NUT; Homo sapiens): 32.9 nM | GI50 (14169 BRD4-NUT; Homo sapiens): 62.9 nM | GI50 (10326 BRD3-NUT; Homo sapiens): 22.7 nM | concentration at which BRD4-NUT detaches from chromatin / is re-distributed (BRD4-NUT): > 1000 nM | cell growth inhibition >100% reached at clinically achievable concentrations (Ty-82): accomplished | TGI (tumour growth inhibition) ([1]; 5 mg/kg CCS1477 p.o. daily): 29% | TGI (tumour growth inhibition) ([1]; 10 mg/kg CCS1477 p.o. daily): 11% | TGI ([2]; 5 mg/kg CCS1477): 24% | TGI ([2]; 10 mg/kg CCS1477): 30% | TGI ([3]; 5 mg/kg CCS1477): 65% | TGI ([3]; 10 mg/kg CCS1477): 88% | concentration at 6 h [4]: 200 to 300 nM | loss of speckled megadomain localisation (NUT staining) (BRD3-NUT): not seen

Cc1cc(-c2ccc3nc(C4CCOCC4)n(CCOC(F)(F)F)c3c2)cn(C)c1=O [NEO2734]
GI50 (Ty-82 BRD4-NUT; 96h): 26.5 nM | GI50 (10–15 BRD4-NUT): 22.6 nM | GI50 (14169 BRD4-NUT): 20.4 nM | GI50 (10326 BRD3-NUT): 11.2 nM | concentration at which BRD4-NUT detaches from chromatin / is re-distributed (BRD4-NUT): > 100 nM | efficacy compared to BETi alone (10–15 xenografts): greater growth inhibition and significantly improved survival

C/C=C1\NC(=O)[C@H]2CSSCC/C=C/[C@H](CC(=O)N[C@H](C(C)C)C(=O)N2)OC(=O)[C@H](C(C)C)NC1=O [Romidepsin]
cell growth inhibition >100% reached at clinically achievable concentrations (Ty-82): accomplished | benefit when added to BI 894999 [5]: did not show benefit

CNC(=O)N1CCc2c(c(N3CCCc4cc(-c5cnn(C)c5)c(C(F)F)cc43)nn2C2CCOCC2)C1 [GNE-781]
cell growth inhibition >100% reached at clinically achievable concentrations (Ty-82): accomplished

CNC(=O)Nc1ccc2c(c1)CC[C@@]21OC(=O)N(CC(=O)N(Cc2ccc(F)cc2)[C@@H](C)C(F)(F)F)C1=O [A485]
cell growth inhibition >100% reached at clinically achievable concentrations (Ty-82): not

Cc1[nH]c2ccccc2c1CCNCc1ccc(/C=C/C(=O)NO)cc1 [Panobinostat]
cell growth inhibition >100% reached at clinically achievable concentrations (Ty-82): accomplished
